Experimental data taken from patent US8962574B2 (Boehringer Ingelheim International GmbH, priority 2008, dated 2015).
Like-named read-outs stand apart in the source and are kept apart here.

Experiments:
[1] = test system: patients with chronic atrial fibrillation; experiment: PETRO phase 2 12-week dose finding study; format: in vivo, human; conditions: 12 weeks
From the text: Primary endpoints were bleeding events and changes in D-dimer. […] Minor bleeding was dose related.

[2] = Clinical pharmacokinetics and pharmacodynamics of dabigatran etexilate; format: in vivo; conditions: after dosing
From the text: Ezekowitz M D, et al., Dabigatran with or without concomitant aspirin compared with warfarin alone in patients with nonvalvular atrial fibrillation (PETRO study), Am. […] The PETRO study is described below.
As noted above, management of warfarin therapy is complex, and failure to adequately monitor patients is associated with risk. […] It also interacts with many common foods, drugs and alcohol which alter its therapeutic effect, putting patients at risk of either a bleeding or thrombotic event. Therefore, warfarin therapy requires careful individualized dosing and frequent monitoring. The significant limitations of VKAs have created a need for an oral anticoagulant with a rapid onset of action, minimal drug interactions, and a predictable anticoagulation effect that needs no monitoring.
Peak levels are seen within 2-3 hours of oral administration. […] Steady-state is reached within 2-3 days with a twice daily regimen. […] The remainder undergoes conjugation with glucuronic acid to form acylglucuronides which are excreted primarily in the bile.

[3] = test system: patients with atrial fibrillation
Protocol: PETRO-Ex began while the PETRO study was ongoing and investigators were initially kept blinded to patient treatment group until PETRO was completed. Unblinding investigators to patient treatment was possible thereafter.
Data were summarized descriptively; no hypothesis was to be tested. Events were analyzed on the basis of the treatment at onset. Incidences were reported as number of patients with events as well as normalized to 100 patient-years on the respective treatment.
Written, informed consent was obtained from all patients.
Patients who completed PETRO on 50 mg b.i.d. were switched to 150 mg q.d. upon entry in the PETRO-Ex study (N=93 patients). […] Patients who were down titrated to 50 mg q.d. based on a glomerular filtration rate ≦50 mL/min during PETRO were excluded from the long-term trial; patients down-titrated in other dose levels remained on the q.d. treatment at that dose.
The total exposure reflects both trials, PETRO and PETRO-Ex, together.

SMILES: CCCCCCOC(=O)NC(=N)c1ccc(NCc2nc3cc(C(=O)N(CCC(=O)OCC)c4ccccn4)ccc3n2C)cc1 [dabigatran etexilate, 1-methyl-2-[N-[4-(N-n-hexyloxycarbonylamidino)phenyl]aminomethyl]benzimidazol-5-ylcarboxylic acid-N-(2-pyridyl)-N-(2-ethoxycarbonylethyl)amides]
- Major bleeding events ([1]; 300 mg b.i.d. plus ASA groups): 6%
- Major bleeding events, number ([1]; 300 mg b.i.d. plus ASA groups): Four
- Minor bleeding ([1]; 50, 150, 300 mg b.i.d.): dose related
- Onset of anticoagulant effect [2]: within one hour
- ALT or AST >2xULN, subjects with event ([3]; 50 mg b.i.d.): 0
- ALT or AST >3xULN and Bili >2xULN within 30 days, subjects with event ([3]; 50 mg b.i.d.): 0
- ALT or AST >3xULN, subjects with event ([3]; 50 mg b.i.d.): 0
- ALT or AST >5xULN, subjects with event ([3]; 50 mg b.i.d.): 0
- Adverse Events leading to premature discontinuation, rate ([3]; 50 mg b.i.d.): 21.3 % per year
- Adverse Events leading to premature discontinuation, subjects with event ([3]; 50 mg b.i.d.): 5
- MI, subjects with event ([3]; 50 mg b.i.d.): 0
- Major Bleeds with aspirin, subjects with event ([3]; 50 mg b.i.d.): 0
- Major Bleeds without aspirin, subjects with event ([3]; 50 mg b.i.d.): 0
- Major Bleeds, subjects with event ([3]; 50 mg b.i.d.): 0
- Other MACE, subjects with event ([3]; 50 mg b.i.d.): 2
- Stroke and Systemic Thromboembolism, subjects with event ([3]; 50 mg b.i.d.): 3
- TIA, subjects with event ([3]; 50 mg b.i.d.): 0
- ALT or AST >2xULN, subjects with event ([3]; 50 mg q.d.): 0
- ALT or AST >3xULN and Bili >2xULN within 30 days, subjects with event ([3]; 50 mg q.d.): 0
- ALT or AST >3xULN, subjects with event ([3]; 50 mg q.d.): 0
- ALT or AST >5xULN, subjects with event ([3]; 50 mg q.d.): 0
- Adverse Events leading to premature discontinuation, subjects with event ([3]; 50 mg q.d.): 0
- MI, subjects with event ([3]; 50 mg q.d.): 0
- Major Bleeds with aspirin, subjects with event ([3]; 50 mg q.d.): 0
- Major Bleeds without aspirin, subjects with event ([3]; 50 mg q.d.): 0
- Major Bleeds, subjects with event ([3]; 50 mg q.d.): 0
- Other MACE, subjects with event ([3]; 50 mg q.d.): 0
- Stroke and Systemic Thromboembolism, subjects with event ([3]; 50 mg q.d.): 0
- TIA, subjects with event ([3]; 50 mg q.d.): 0
- ALT or AST >2xULN, rate ([3]; 150 mg b.i.d.): 3.1 % per year
- ALT or AST >2xULN, subjects with event ([3]; 150 mg b.i.d.): 21
- ALT or AST >3xULN and Bili >2xULN within 30 days, rate ([3]; 150 mg b.i.d.): 0.4 % per year
- ALT or AST >3xULN and Bili >2xULN within 30 days, subjects with event ([3]; 150 mg b.i.d.): 3
- ALT or AST >3xULN, rate ([3]; 150 mg b.i.d.): 1.9 % per year
- ALT or AST >3xULN, subjects with event ([3]; 150 mg b.i.d.): 13
- ALT or AST >5xULN, rate ([3]; 150 mg b.i.d.): 1.0 % per year
- ALT or AST >5xULN, subjects with event ([3]; 150 mg b.i.d.): 7
- Adverse Events leading to premature discontinuation, rate ([3]; 150 mg b.i.d.): 9.8 % per year
- Adverse Events leading to premature discontinuation, subjects with event ([3]; 150 mg b.i.d.): 67
- MI, subjects with event ([3]; 150 mg b.i.d.): 6
- Major Bleeds with aspirin, rate ([3]; 150 mg b.i.d.): 8.7 % per year
- Major Bleeds with aspirin, subjects with event ([3]; 150 mg b.i.d.): 11
- Major Bleeds without aspirin, rate ([3]; 150 mg b.i.d.): 3.2 % per year
- Major Bleeds without aspirin, subjects with event ([3]; 150 mg b.i.d.): 18
- Major Bleeds, rate ([3]; 150 mg b.i.d.): 4.2 % per year
- Major Bleeds, subjects with event ([3]; 150 mg b.i.d.): 29
- Other MACE, subjects with event ([3]; 150 mg b.i.d.): 7
- Stroke and Systemic Thromboembolism, subjects with event ([3]; 150 mg b.i.d.): 7
- TIA, subjects with event ([3]; 150 mg b.i.d.): 1
- ALT or AST >2xULN, rate ([3]; 150 mg q.d.): 3.4 % per year
- ALT or AST >2xULN, subjects with event ([3]; 150 mg q.d.): 2
- ALT or AST >3xULN and Bili >2xULN within 30 days, subjects with event ([3]; 150 mg q.d.): 0
- ALT or AST >3xULN, subjects with event ([3]; 150 mg q.d.): 0
- ALT or AST >5xULN, subjects with event ([3]; 150 mg q.d.): 0
- Adverse Events leading to premature discontinuation, rate ([3]; 150 mg q.d.): 13.7 % per year
- Adverse Events leading to premature discontinuation, subjects with event ([3]; 150 mg q.d.): 8
- MI, subjects with event ([3]; 150 mg q.d.): 0
- Major Bleeds with aspirin, subjects with event ([3]; 150 mg q.d.): 0
- Major Bleeds without aspirin, rate ([3]; 150 mg q.d.): 6.5 % per year
- Major Bleeds without aspirin, subjects with event ([3]; 150 mg q.d.): 3
- Major Bleeds, rate ([3]; 150 mg q.d.): 5.1 % per year
- Major Bleeds, subjects with event ([3]; 150 mg q.d.): 3
- Other MACE, subjects with event ([3]; 150 mg q.d.): 0
- Stroke and Systemic Thromboembolism, subjects with event ([3]; 150 mg q.d.): 3
- TIA, subjects with event ([3]; 150 mg q.d.): 0
- ALT or AST >2xULN, rate ([3]; 300 mg b.i.d.): 4.9 % per year
- ALT or AST >2xULN, subjects with event ([3]; 300 mg b.i.d.): 4
